Reference: paper PMC12123601, “Light-Induced, Lysine-Targeting Irreversible Covalent Inhibition of the Human Oxygen Sensing Hydroxylase Factor Inhibiting HIF (FIH)” (Journal of the American Chemical Society, 2025)

Experiments:
[1] = target: FIH (Homo sapiens, UniProt Q9NWT6); test: O-phenylenediamine (OPD) 2OG derivatization turnover assay (remaining 2OG in FIH hydroxylation system); format: biochemical; design: Concentration of remaining 2OG: unit: µM
Protocol: To explore whether the covalent inhibitor can effectively and sustainably prevent the hydroxylation process catalyzed by FIH, the inhibitory activities against FIH were evaluated using the fluorescent O-phenylenediamine (OPD) 2OG derivatization turnover assay (Figure S9).
Figure S9. Schematic of the O-phenylenediamine (OPD) fluorescent derivative assay6. The assay monitors depletion of 2OG.
(1 picture or pasted object on this page, not shown here) […]
pET28a vectors encoding for full-length FIH with an N-terminal His6 tag or for FIH (K106A) with an N-terminal His6 tag were purchased from Nanjing Zoonbio Biotechnology. Both the FIHWT and FIHK106A protein were expressed from the respective plasmid in Escherichia coli BL21 at 20 °C for 16 h. E. coli cells were lysed and the lysate were clarified by centrifugation. His6-tagged FIHWT or FIHK106A was purified on a HisTrap affinity column (GE Healthcare) by elution with an imidazole gradient. The final purified proteins were stored in PBS buffer. […]
Ki = I50 / [1 + ([L]50 + [P]0)/Kd] […]
3.2 O-Phenylenediamine (OPD) fluorescent derivative assay
Assays were carried out by mixing 1 mM DTT, 0.6 mg/mL of catalase, 200 μM 2-OG, 50 mM Hepes, 200 μM HIF-1α (788-807), and inhibitors at pH 7.0 to a final volume of 44 μL and incubated at 37 °C for 5 min. At the same time, FIH enzyme and iron (prepared as 200 mM stock in 20 mM HCl and diluted with water) were mixed at room temperature for 3 min. […] The reaction was stopped by the addition of 100 μL of 0.5 M HCl. After adding 50 μL of 10 mg/mL OPD in 0.5 M HCl and heating at 95 °C for 10 min, the derivatization was achieved. Then, 50 μL of the mixture centrifugated for 5 min was made basic by adding 30 μL of 1.25 M NaOH, and then fluorescence was detected by SPARK Multi-Mode Microplate Reader (Tecan). […]
Crystals were cryo -protected using mother liquor supplemented with 25%v/v glycerol before manual loop cryo -cooling in liquid N2.
Data for ligand -bound protein complexes were from single crystals at 100 K using Diamond Light Source (UK) beamlines. The FIH crystal structures were determined by molecular replacement (MR) using the AutoMR (PHASER) subroutine in PHENIX (version 1.18.2) based on the PDB ID: 1H2K crystal structure .

[2] = system: EGLN3 expression in FIH knockdown Hep3B cells; test: qRT-PCR of EGLN3 in FIH knockdown (siFIH) Hep3B cells; format: cell-based
Protocol: 5 NBA-ZG-2991 sustainably engages with FIH and regulates the expression of FIH-dependent HIF target gene EGLN3 in Hep3B cells. (A) The CETSA assay was carried out with Hep3B cells grown in the presence of NBA-ZG-2291 (50 μM) for 12–48 h after 30 min of light activation (365 nm, 16 W). The intensity of the bands for grayscale analysis was referenced to the starting temperature (37 °C). α-Actinin was the sample loading control. n = 2; mean ± SD. […] (E) Correlation heatmap of the NBA-ZG-2291-treated group and the siFIH group by RNA-sequencing analysis. […] The relative fold change with respect to DMSO treated sample is shown (with normalization to HPRT gene levels). Mean ± SEM; n = 3. (G) TG level of NBA-ZG-2291-treated 3T3-L1-derived adipocytes. Mean ± SEM; n = 3. (H) Representative Oil Red O-stained images of the control, ZG-2291-treated, and NBA-ZG-2291-treated 3T3-L1-derived adipocytes. Scale Bar, 30 μm. P values were analyzed by two-way ANOVA comparing with the vehicle/control group (*, P < 0.05; **, P < 0.01; ***, P < 0.001, ****, P < 0.0001). See Methods (Quantitative PCR Analysis of Gene Expression) for assay details. […]

Chain of FIH (Q9NWT6 whole entry): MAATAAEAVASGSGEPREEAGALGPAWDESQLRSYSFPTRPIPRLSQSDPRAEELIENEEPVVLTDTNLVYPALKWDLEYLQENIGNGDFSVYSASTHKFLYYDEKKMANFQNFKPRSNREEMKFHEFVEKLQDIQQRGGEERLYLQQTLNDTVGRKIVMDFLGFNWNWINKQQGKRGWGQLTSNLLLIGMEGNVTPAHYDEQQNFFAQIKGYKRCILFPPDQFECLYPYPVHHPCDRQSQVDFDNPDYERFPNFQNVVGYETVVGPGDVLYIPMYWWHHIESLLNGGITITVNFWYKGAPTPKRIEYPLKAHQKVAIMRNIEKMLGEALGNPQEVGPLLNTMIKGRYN

O=C(O)CNC(=O)c1ncc(-c2cc(-c3ccc(CO)c([N+](=O)[O-])c3)no2)cc1O [NBA-ZG-2291]
Inhibition of FIH hydroxylation activity on the HIF peptide (2OG consumption) ([1]; compared to ZG-2291): more potent and sustained inhibition of FIH hydroxylation activity
Concentration of remaining 2OG ([1]; inhibitor 0.14 μM, incubation 0 min, 200 μM 2-OG at start): 200.0
Concentration of remaining 2OG ([1]; inhibitor 0.14 μM, incubation 15 min): 187.5
Concentration of remaining 2OG ([1]; inhibitor 0.14 μM, incubation 30 min): 184.6
Concentration of remaining 2OG ([1]; inhibitor 0.14 μM, incubation 1 h): 174.8
Concentration of remaining 2OG ([1]; inhibitor 0.14 μM, incubation 4 h): 163.1
Concentration of remaining 2OG ([1]; inhibitor 0.41 μM, incubation 0 min, 200 μM 2-OG at start): 200.0
Concentration of remaining 2OG ([1]; inhibitor 0.41 μM, incubation 15 min): 189.1
Concentration of remaining 2OG ([1]; inhibitor 0.41 μM, incubation 30 min): 188.8
Concentration of remaining 2OG ([1]; inhibitor 0.41 μM, incubation 1 h): 184.6
Concentration of remaining 2OG ([1]; inhibitor 0.41 μM, incubation 4 h): 171.6
Concentration of remaining 2OG ([1]; inhibitor 1.23 μM, incubation 0 min, 200 μM 2-OG at start): 200.0
Concentration of remaining 2OG ([1]; inhibitor 1.23 μM, incubation 15 min): 191.6
Concentration of remaining 2OG ([1]; inhibitor 1.23 μM, incubation 30 min): 190.6
Concentration of remaining 2OG ([1]; inhibitor 1.23 μM, incubation 1 h): 187.9
Concentration of remaining 2OG ([1]; inhibitor 1.23 μM, incubation 4 h): 182.8
Concentration of remaining 2OG ([1]; inhibitor 3.70 μM, incubation 0 min, 200 μM 2-OG at start): 200.0
Concentration of remaining 2OG ([1]; inhibitor 3.70 μM, incubation 15 min): 194.0
Concentration of remaining 2OG ([1]; inhibitor 3.70 μM, incubation 30 min): 193.5
Concentration of remaining 2OG ([1]; inhibitor 3.70 μM, incubation 1 h): 189.6
Concentration of remaining 2OG ([1]; inhibitor 3.70 μM, incubation 4 h): 185.3
Concentration of remaining 2OG ([1]; inhibitor 11.1 μM, incubation 0 min, 200 μM 2-OG at start): 200.0
Concentration of remaining 2OG ([1]; inhibitor 11.1 μM, incubation 15 min): 199.7
Concentration of remaining 2OG ([1]; inhibitor 11.1 μM, incubation 30 min): 198.7
Concentration of remaining 2OG ([1]; inhibitor 11.1 μM, incubation 1 h): 197.8
Concentration of remaining 2OG ([1]; inhibitor 11.1 μM, incubation 4 h): 197.2
Concentration of remaining 2OG ([1]; inhibitor 33.3 μM, incubation 0 min, 200 μM 2-OG at start): 200.0
Concentration of remaining 2OG ([1]; inhibitor 33.3 μM, incubation 15 min): 200.8
Concentration of remaining 2OG ([1]; inhibitor 33.3 μM, incubation 30 min): 198.7
Concentration of remaining 2OG ([1]; inhibitor 33.3 μM, incubation 1 h): 197.6
Concentration of remaining 2OG ([1]; inhibitor 33.3 μM, incubation 4 h): 197.3
Concentration of remaining 2OG ([1]; inhibitor 100 μM, incubation 0 min, 200 μM 2-OG at start): 200.0
Concentration of remaining 2OG ([1]; inhibitor 100 μM, incubation 15 min): 200.1
Concentration of remaining 2OG ([1]; inhibitor 100 μM, incubation 30 min): 199.2
Concentration of remaining 2OG ([1]; inhibitor 100 μM, incubation 1 h): 198.5
Concentration of remaining 2OG ([1]; inhibitor 100 μM, incubation 4 h): 198.3
Concentration of remaining 2OG ([1]; inhibitor 300 μM, incubation 0 min, 200 μM 2-OG at start): 200.0
Concentration of remaining 2OG ([1]; inhibitor 300 μM, incubation 15 min): 201.4
Concentration of remaining 2OG ([1]; inhibitor 300 μM, incubation 30 min): 199.5
Concentration of remaining 2OG ([1]; inhibitor 300 μM, incubation 1 h): 199.2
Concentration of remaining 2OG ([1]; inhibitor 300 μM, incubation 4 h): 198.6
Effect on EGLN3 expression when FIH was knocked down [2]: no significant effect on EGLN3 expression
